Source: patent EP4763841A1, “PYRIDAZINONE COMPOUND AND USE THEREOF” (Xi'an Xintong Pharmaceutical Research Co., Ltd., priority 2023, dated 2025)
“Also recorded” adds a separate entry of the source.

Tests used:
THRβ = target: T1, THRβ (Homo sapiens, UniProt P10828); assay: HTRF test of agonist-induced SRC3-2 coactivator peptide recruitment to THRβ-LBD; type: biochemical
T1 sequence (P10828 217-461 limits assumed): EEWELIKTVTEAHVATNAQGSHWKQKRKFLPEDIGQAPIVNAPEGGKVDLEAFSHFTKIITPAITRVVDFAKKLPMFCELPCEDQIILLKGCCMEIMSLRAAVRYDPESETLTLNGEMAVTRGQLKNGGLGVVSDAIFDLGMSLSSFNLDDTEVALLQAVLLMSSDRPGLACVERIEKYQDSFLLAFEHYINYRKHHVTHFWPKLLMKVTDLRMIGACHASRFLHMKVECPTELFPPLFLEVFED
Experimental: 1. Experiment of binding of compounds to THRβ and THRα
Test principle: The effect of test compounds on THRβ and THRα was tested by using a method of HTRF. An MAb Anti GST-Eu cryptate antibody binds to GST-tagged THRα-LBD (or THRβ-LBD), while Streptavidin-XL665 binds to a biotin-labeled SRC3-2 coactivator peptide. […] At the same time, the resulting decrease in the distance between XL665-labeled SRC3-2 and an Eu-anti-GST antibody increases a THRFRET signal. The agonistic capacity at this target was assessed by the effect of compounds on the activity of THRα-LBD (THRβ-LBD) at different concentrations.
Test method: THRβ test procedures:
• (1) a 1×reaction solution was prepared. • (2) Preparation of compounds: the compound test starting concentration was 20 µM, 3-fold dilution was performed, 10 concentrations were set, and duplicate testing was set for each concentration. 100-fold dilution was performed in a 384-well Source plate to a corresponding solution with a final concentration, and then 200 nL of the solution was transferred to a 384-well reaction plate with Echo550 to be tested. 200 nL of 100% DMSO and a test article were respectively transferred to Min and Max wells. • (3) A 2×protein solution was prepared from the 1×reaction solution. • (4) A 4×SRC3-2 solution was prepared from the 1×reaction solution. • (5) A mixed solution of 4×GST-Eu cryptate and XL665 was prepared from the 1×reaction solution. • (6) 10 µl of the 2×protein solution was added to each well of the reaction plate, centrifugation was performed at 1000 rpm for 1 min, and incubation was performed at room temperature for 30 min. • (7) 5 µl of the 4×SRC3-2 solution was added to each well of the reaction plate, and centrifugation was performed at 1000 rpm for 1 min. • (8) 5 µL of the mixed solution of 4×GST-Eu cryptate and XL665 was added to each well of the reaction plate, centrifugation was performed at 1000 rpm for 1 min, and incubation was performed at 25°C. • (9) A fluorescence signal was read by using EnVision.

[1] = Distribution of compounds in major organs after single gavage administration; type: in vivo, Sprague Dawley rats; settings: gavage 5 mg/kg single dose, 1 h and 4 h, SD rats, result in words (FIG. 2)
Experimental: 0.25-0.3 ml of Systemic blood (jugular vein) was taken at each blood collection point to be added into an EDTA-K2 anticoagulant tube, uniform mixing was performed by gentle inversion, and the obtained mixture was stored on crushed ice for transport. Collection plan: PO blood collection point: 1 h and 4 h after administration. Animals were euthanized, tissues and organs were taken, and livers (0.3-0.5 g of liver was taken at a fixed position of a large lobe of liver), kidneys, and hearts were weighed, placed in 5 ml centrifuge tubes, quick-frozen on dry ice, and cryopreserved at -20°C.
A solvent (methanol:acetonitrile:water=25:25:50) was added for grinding and homogenization, and this process was performed rapidly by using a tissue grinder.
A solvent was added to the liver to 3 ml, one large steel ball and one small steel ball were added, and grinding was performed at 50 Hz for 60 s. Vortexing was performed for uniform mixing, and centrifugation was performed at 8000 rpm for 5 min. 0.3 ml of a supernatant was taken, a solvent was added until 3 ml, vortexing was performed for uniform mixing, and centrifugation was performed at 8000 rpm for 5 min. 0.1 ml of a supernatant was taken, 0.2 ml of acetonitrile was added, vortexing was performed for 30 s, and centrifugation was performed at 10000 rpm for 5 min. A supernatant was taken and sent for testing to analyze the drug content. […]

## [2H]C([2H])([2H])C(c1c(C)c(Oc2c(Cl)cc(-n3nc(CF)c(=O)[nH]c3=O)cc2Cl)n[nH]c1=O)C([2H])([2H])[2H] [Compound 6]
THRβ; HTRF, starting concentration 20 µM, 3-fold dilution, 10 concentrations, duplicate, read-out: THRβ (EC50)
  EC50: 6.5 nM
THRβ; result in words
  agonistic activity on THRβ compared with Resmetirom: significantly better than that of Resmetirom
  selectivity of agonistic effect for THRβ over THRα: selective agonistic effects on THRβ
[1]
  liver distribution: significant liver distribution advantage over Resmetirom and the compound X1; also recorded: significant liver distribution advantage over Resmetirom and a compound X1
